We go through three compounds from patent publication US10513534B2, “2′-chloro nucleoside analogs for HCV infection” (priority 2012, dated 2019).

Series [1] has as its system HCV genotype 1b replicon. The series is described as follows: HCV replicon assay (Zluc luciferase). The class given is cell-based. As to conditions: Zluc cells, 72 hours; read-out: HCV Replicon EC50. Put shortly:
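Zluc Huh-7 cells with HCV genotype 1b replicon and luciferase reporter treated with 5-fold dilutions (100 μM to 0.0000512 μM final) in duplicate, or at 1 and 10 μM. Luminescence read with ONE-glo; EC50 from dose-response fits, or % inhibition at the fixed concentrations.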
Background: A replicon is a self-replicating genome or part of one, used to study replication in cells.

In series [2] the test system is fresh human hepatocytes. The series is described as follows: Release of active metabolite in fresh human hepatocytes. In kind it is in vitro ADME. The arrangement: key to FHH TP (6 hr): + ≤ 15; 15 < ++ ≤ 50; 50 < +++ ≤ 100; 100 < ++++; BLD = below limit of detection. The following applies: 10 μM. Here is the method: (§1) Plates of fresh human and mouse hepatocytes were obtained on ice. The medium was removed and replaced with hepatocyte culture medium (William's E supplemented with penicillin-streptomycin, 1% L-glutamine, 1% insulin-transferrin-selenium and 0.1 μM Dexamethasone (Invitrogen) or with Invitro GRO HI medium complemented with Torpedo antibiotics (Celsis)). Cells were left overnight in an incubator at 37° C. to acclimatize to culture and the medium.
(§2) Hepatocyte incubations were conducted at a final volume of 0.5 mL hepatocyte culture medium/well (0.8 million cells/well for human and 0.5 million cells/well for mouse; 12 well plate no overlay, collagen coat). Culture medium from overnight incubation of cells was removed and replaced with fresh medium, pre-warmed to 37° C., containing 10 μM of test compound from a stock solution in DMSO (final DMSO concentration was 0.1%). At each specific time point, incubation medium was removed and cell monolayers were carefully washed two times with ice-cold PBS. Following the last wash, all PBS was carefully removed and 1.0 mL of extraction solution (ice-cold 70% methanol/30% water) added. Cells were scraped off and suspended in the extraction solution, transferred to 2 mL polypropylene microfuge tubes and intracellular contents extracted overnight at −20° C.
(§3) After the overnight treatment the cellular extracts were prepared by centrifugation at 16,000×g for 10 min to remove cellular debris. The remaining sample was then dried using a refrigerated centrivap concentrator. Dry extracts were reconstituted in 1000 μL of HPLC-grade water and centrifuged at 16,000×g for 10 min. Aliquots (100 μL each) of the supernatant were transferred into a 96 well plate and internal standard (4 ng/mL final concentration) was added as the internal standard (IS) for LC-MS/MS analysis.
(§4) The incubation time points were 6, 24 and 48 hours for human hepatocytes and 1, 4, 8, 12 and 24 hours for mouse hepatocytes.

Series [3] is described as follows: Plasma prodrug and nucleoside pharmacokinetics after single oral dose in cynomolgus monkeys. In kind it is in vivo. As to conditions: cynomolgus monkey, plasma, single oral 10 mg/kg. Here is the method:
(§5) For each compound, a single oral dose at 10 mg/kg in PEG 200 (dose volume 3 mL/kg) was administered to cynomolgus monkeys. Untreated animals were used for the collection of control liver. Plasma samples were collected at 0.5, 1, 2, 4, 6, 8, 12 and 24 hours for compound 37, diastereomer 2.
Plasma samples were analyzed for the prodrug and nucleoside by LC-MS/MS. For protein precipitation and extraction, each plasma sample (50 μL) was treated with 500 μL of 0.2% formic acid in acetonitrile and 20 μL of an appropriate internal standard working solution. After vortexing and centrifugation, 500 µL of the sample extracts were transferred to a new plate, dried under N2 at ˜28° C. and reconstituted with 75 μL of 0.2% FA in water. The extracts were chromatographed on an Aquasil C18 column using a gradient system of 0.2% formic acid in water and acetonitrile. The analytes were detected and quantified by tandem mass spectrometry in positive ion mode on an MDS Sciex API4000 equipped with a Turbo Ionspray® interface.

The nature of series [4]: Stability in simulated intestinal fluid. The class given is in vitro ADME. The following applies: simulated intestinal fluid with pancreatin, 100 μM, 2 hours, 37° C. As to the method:
(§6) Stability in Simulated Gastric and Intestinal Fluids: Simulated gastric and intestinal fluids containing pepsin and pancreatin respectively were prepared according to the U.S. Pharmacopoeia USP291 procedure(www.pharmacopeia.cn/v29240/usp29nf24s0_ris1s126.html). Each test compound (final concentration 100 μM) was incubated in duplicate in the appropriate fluid for 2 hours at 37° C. The samples were quenched with […] cold acetonitrile, vortexed for 30 seconds and then centrifuged at 16100×g for 10 min. The supernatants were analyzed by HPLC on a C-18 column with UV detection at 252 nm. The time zero samples were prepared by adding SGF or SIF fluid to the quenching solvent followed by the test compound. Stability of the compound was determined by peak area of the test compound after incubation and calculated as percent of the peak area observed at time zero.

Series [5] can be described thus: Stability in simulated gastric fluid. As to conditions: simulated gastric fluid with pepsin, 100 μM, 2 hours, 37° C. The class given is in vitro ADME. As to the method:
as §6

Series [6] is described as follows: Liver triphosphate pharmacokinetics after single oral dose in cynomolgus monkeys. The class given is in vivo. As to conditions: normalized to 1 μmol/kg dose. Here is the method:
as §5
Liver samples were analyzed for the relevant nucleoside triphosphate by LC-MS/MS. […] Appropriate internal standard solution was added to the homogenate followed by neutralization with 20% ammonium hydroxide solution and addition of 500 μL 1% formic acid. The tissue samples were extracted by weak anion exchange solid phase extraction (SPE). Post extraction, the eluates were evaporated under nitrogen, followed by reconstitution before injection onto the LC-MS/MS system.

Series [7] in a line: Plasma nucleoside pharmacokinetics after single oral dose in CD-1 mice. In kind it is in vivo. The following applies: single oral dose 10 mg/kg in PEG 200. The gist of the method: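 Mouse plasma was extracted by acetonitrile/0.2% formic acid protein precipitation using 2′-MeG-D3 or tiapride as internal standard. Nucleoside was quantified by positive-ion LC-MS/MS after C18 gradient separation. Calibration spanned 0.500 (LLOQ) to 200 ng/mL.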

In series [8] the test system is Zluc cells. Put plainly: Cytotoxicity evaluation, CellTiter-Blue Cell Viability Assay. As to conditions: Zluc cells, CellTiter-Blue. A general note: Alamar Blue is a resazurin reagent that responds to reducing activity.
For series [9], the system named is fresh mouse hepatocytes. Put plainly: Release of active metabolite in fresh mouse hepatocytes. The class given is in vitro ADME. As to conditions: 10 μM. Here is the method:
as §1, §2, §3, §4

In series [10] the test system is Zluc cells. Put plainly: Cytotoxicity in Zluc cells (CES1 study). In kind it is cell-based. As to the method:
(§7) For cytotoxicity evaluation, cells were treated with compounds as described herein, and cell viability was monitored using the CellTiter-Blue Cell Viability Assay (Promega) by adding 20 μL of the assay solution to each well. The plates were then incubated at 37° C./5% CO2 for at least 3 hours.

Series [11] relates to HCV genotype 1b replicon. Put plainly: HCV replicon assay in Zluc cells transiently transfected with human CES1. In kind it is cell-based. As to conditions: for EC50: Zluc cells transiently transfected with human CES1, 72 hours; for Effect of CES1 overexpression on replicon activity: cells overexpressing CES1 versus Zluc; for Fold Activity Increase EC50 (Zluc)/EC50 (Zluc + CES1): ratio of replicon EC50 without and with CES1 overexpression. As to the method:
(§8) An Huh-7-derived cell line (Zluc) that harbors an HCV genotype 1b replicon and a luciferase reporter gene was grown in Dulbecco's Modified Eagle Medium (DMEM) supplemented with 10% fetal bovine serum, 2 mM GlutaMAX, 1% MEM nonessential amino acids, 100 IU/mL penicillin, 100 μg/mL streptomycin, and 0.5 mg/mL Geneticin® (G418). Zluc cells were transiently transfected with human CES1 (GenBank Accession No. NM_001025194) by employing a lipid/histone based transfection procedure. Expression of CES1 was confirmed by Western blot, 24- and 48-hours after transfection, using anti-CES1 and anti-FLAG® tag antibodies.
For dose response testing the cells were seeded in 96-well plates at 7.5×10^3 cells per well in a volume of […], and incubated at 37° C./5% CO2. Drug solutions were prepared freshly in the culture medium as 2× stocks. Ten additional 5-fold dilutions were prepared from these stocks in DMEM without G418. At least three hours after cells were seeded, drug treatment was initiated by adding 50 μL of drug dilutions to the plates in duplicate. Final concentrations of drug ranged from 100 μM to 0.0000512 μM. Cells were then incubated at 37° C./5% CO2. […] For this, media was removed from the plates via gentle tapping. Fifty microliters of ONE-glo luciferase assay reagent was added to each well. The plates were shaken gently for 3 min at room temperature and luminescence was measured on a Victor^3 V 1420 multilabel counter (Perkin Elmer) with a 1 second read time using a 700 nm cut-off filter. The EC50 values were calculated from dose response curves from the resulting best-fit equations determined by Microsoft Excel and XLfit 4.1 software.

Series [12] deals with HCV genotype 1b replicon. The series is described as follows: HCV replicon assay in Zluc cells (CES1 study). In kind it is cell-based. The following applies: 72 hours. Here is the method: as §8
For dose response testing the cells were seeded in 96-well plates at 7.5×10^3 cells per well in a volume of […], and incubated at 37° C./5% CO2. Drug solutions were prepared freshly in the culture medium as 2× stocks. Ten additional 5-fold dilutions were prepared from these stocks in DMEM without G418. At least three hours after cells were seeded, drug treatment was initiated by adding 50 μL of drug dilutions to the plates in duplicate. […] The plates were shaken gently for 3 min at room temperature and luminescence was measured on a Victor^3 V 1420 multilabel counter (Perkin Elmer) with a 1 second read time using a 700 nm cut-off filter. The EC50 values were calculated from dose response curves from the resulting best-fit equations determined by Microsoft Excel and XLfit 4.1 software.

The subject of series [13] is Zluc + CES1 cells. Put plainly: Cytotoxicity in Zluc cells transfected with human CES1. The class given is cell-based. The following applies: Zluc cells transiently transfected with human CES1. As to the method:
as §8, §7

The nature of series [14]: Cytotoxicity in Zluc cells (CES1 study). The class given is cell-based. As to conditions: human. As to the method: as §7
Series [15] can be described thus: Cytotoxicity in Zluc cells transfected with human CES1. As to conditions: Zluc cells transiently transfected with human CES1. The class given is cell-based. As to the method:
as §8, §7

Usually EC50 stands for the concentration giving half of the maximal effect. In general, Tmax refers to the time from dosing to the highest level. Broadly, the Cmax is the highest concentration seen after dosing. The CC50 is the concentration giving 50% cytotoxicity.

Each structure is given as a SMILES string.

Take `CC(C)OP1(=O)OC[C@H]2O[C@@H](n3ccc(=O)[nH]c3=O)[C@](C)(Cl)[C@@H]2O1` (single isomer, unassigned) [Compound 37 Diastereomer 2]: the EC50 in series [1] fell in the range of 1000 to 10000 nM. For the same compound, in series [2], the “FHH TP AUC” value is “+++ (500 < +++ ≤ 1500)” and the “FHH TP Cmax” value is listed as “++ (15 < ++ ≤ 50)”. In series [2] (6 hr), the “FHH TP (6 hr)” value is on record as “BLD^b”. Also, in series [2] (24 hr), the “FHH TP (24 hr)” value was “++ (15 < ++ ≤ 50)”. Besides, in series [2] (48 hr), the “FHH TP (48 hr)” value is “++ (15 < ++ ≤ 50)”. In addition, in [3], the Tmax is 4 h. Besides, the AUC(0-t) in [3] (normalized to 1 μmol/kg dose, read-out: Plasma prodrug AUC0-24) was above 1.5 µM·h. In series [3] (normalized to 1 μmol/kg dose, read-out: Plasma prodrug Cmax), the highest concentration (Cmax) was above 100 nM. In addition, the “SIF stability (percent remaining)” value in series [4] is reported as “++++ (75% < ++++)”. Besides, the “SGF stability (percent remaining)” value in series [5] was “++++ (75% < ++++)”. Besides, the “Nucleoside triphosphate in Liver C6” value in series [6] (6 hours post dose, 10 mg/kg oral) is reported as “++++ (100 < ++++)”. Moreover, in series [6] (single oral 10 mg/kg), the “Nucleoside triphosphate in Liver AUC0-24” value is “++++ (1500 < ++++)” and the “Nucleoside triphosphate in Liver Cmax” value is “++++ (100 < ++++)”. In addition, in series [7], the “Ms Plasma nucleoside Cmax” value is on record as “+++ (50 < +++ ≤ 100)”. Further, the CC50 in series [8] was above 50000 nM. Moreover, in series [9], the “MsH AUC” value was “++++ (1500 < ++++)” and the “MsH Cmax” value is “++++ (100 < ++++)”.

In the case of `CC(C)(CO)C(=O)SCCOP(=O)(NCc1ccccc1)OC[C@H]1O[C@@H](n2cnc3c(=O)[nH]c(N)nc32)[C@](C)(O)[C@@H]1O` (stereo partly drawn) [IDX-184], the half-maximal cytotoxic concentration (CC50) in [10] and in series [13] was above 50000 nM each time. Moreover, the 50% effective concentration (EC50) in series [11] and in [12] was below 250 nM in each case. Moreover, the “Effect of CES1 overexpression on replicon activity” value in [11] is “not increased”. The “Fold Activity Increase EC50 (Zluc)/EC50 (Zluc + CES1)” value in series [11] is recorded as “+ (+ ≤ 1)”.

With `CC(C)OC(=O)[C@H](C)N[P@](=O)(OC[C@H]1O[C@@H](n2ccc(=O)[nH]c2=O)[C@](C)(F)[C@@H]1O)Oc1ccccc1` [Sofosbuvir, sofosbuvir], the CC50 in [14] and in series [15] was above 50000 nM throughout. Moreover, the EC50 in series [11] (Hepatitis C virus) and in series [12] (Hepatitis C virus) was 250 to 1000 nM each time. Also, in series [11], the “Effect of CES1 overexpression on replicon activity” value is “not increased”. Moreover, in series [11], the “Fold Activity Increase EC50 (Zluc)/EC50 (Zluc + CES1)” value is “+ (+ ≤ 1)”.
